Source: patent publication US20100144008A1, “TREATMENT OF FABRY DISEASE” (ACADEMISCH ZIEKENHUIS BIJ DE UNIVERSITEIT VAN AMSTERDAM, priority 2006, published 2010)
Like-named read-outs stand apart in the source and are kept apart here.

Assays:
alpha-galactosidase B = target: T1, alpha-galactosidase B (Homo sapiens, UniProt P17050); assay: Inhibition of alpha-galactosidase B by lyso-CTH; type: biochemical
T1 sequence (P17050 18-411): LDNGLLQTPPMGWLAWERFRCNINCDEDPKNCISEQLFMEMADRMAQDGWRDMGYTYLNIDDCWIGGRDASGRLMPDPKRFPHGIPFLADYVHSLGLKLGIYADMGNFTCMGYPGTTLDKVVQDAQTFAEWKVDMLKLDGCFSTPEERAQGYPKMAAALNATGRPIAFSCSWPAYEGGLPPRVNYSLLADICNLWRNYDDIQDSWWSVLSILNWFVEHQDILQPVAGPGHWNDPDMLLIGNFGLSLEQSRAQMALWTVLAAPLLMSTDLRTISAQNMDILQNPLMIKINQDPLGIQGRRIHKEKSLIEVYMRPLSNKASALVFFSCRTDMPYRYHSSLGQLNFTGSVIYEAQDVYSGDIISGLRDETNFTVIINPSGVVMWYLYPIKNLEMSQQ

[1] = Partitioning of lyso-CTH in Bligh and Dyer and butanol/water extraction; type: physicochemical
Protocol: An optimal extraction procedure for lyso-CTH from plasma samples was established. A double extraction was carried out, first a Bligh and Dyer extraction followed by butanol extraction.

alpha-galactosidase A = target: T2, alpha-galactosidase A (Homo sapiens, UniProt P06280); assay: Inhibition of alpha-galactosidase A by lyso-CTH; type: biochemical
T2 sequence (P06280 32-429): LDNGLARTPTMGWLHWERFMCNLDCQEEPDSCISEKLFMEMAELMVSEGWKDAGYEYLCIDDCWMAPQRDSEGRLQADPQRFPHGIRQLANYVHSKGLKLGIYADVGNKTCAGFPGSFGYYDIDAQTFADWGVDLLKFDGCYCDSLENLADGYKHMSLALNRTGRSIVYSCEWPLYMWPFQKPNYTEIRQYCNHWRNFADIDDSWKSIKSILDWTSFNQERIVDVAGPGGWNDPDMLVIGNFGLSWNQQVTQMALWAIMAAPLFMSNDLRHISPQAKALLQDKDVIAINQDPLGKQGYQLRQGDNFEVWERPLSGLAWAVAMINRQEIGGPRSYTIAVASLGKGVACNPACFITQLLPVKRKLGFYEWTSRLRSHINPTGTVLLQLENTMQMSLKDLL

SMC-41 cell line = assay: Toxic effect in vitro: 3H thymidine incorporation and proliferation in SMC-41 cell line; type: cell-based; conditions: lyso-CTH 0.065-0.65 μM (as found in plasma of Fabry patients); for proliferation of SMC-41 (smooth muscle cell proliferation): in vitro
Protocol: The toxic effect of lyso-CTH was determined in vitro in SMC-41 cell line. ^3H thymidine incorporation (per 24 h) was determined as a function of lyso-CTH concentration.

lyso-CTH = assay: Plasma lyso-CTH concentration in mouse model of Fabry disease after enzyme; type: in vivo; conditions: compared to underivatised agalsidase beta
[2] = Plasma circulation of alphaGAL replacement enzyme in mouse model of Fabry disease; type: in vivo; conditions: compared to underivatised agalsidase beta
Protocol: Via standard methods agalsidase beta (Fabrazyme®, Genzyme) is pegylated.
In a mouse model of Fabry disease at different time-points plasma samples are analysed for the presence of agalsidase beta to give reference values and at the same different time-points plasma samples are analysed for the presence of pegylated agalsidase beta.

Inhibition of alpha-galactosidase B (alpha-galactosidase B)	Inhibition of alpha-galactosidase B (alpha-galactosidase B; listed as Lyso-CTH)	Partitioning of lyso-CTH (% of total), lower phase ([1]; Bligh and Dyer extraction)	Partitioning of lyso-CTH (% of total), upper phase ([1]; Bligh and Dyer extraction)	Partitioning of lyso-CTH (% of total), lower phase ([1]; butanol/water extraction)	Partitioning of lyso-CTH (% of total), upper phase ([1]; butanol/water extraction)	Inhibition of alpha-galactosidase A (alpha-galactosidase A)	Inhibition of alpha-galactosidase A (alpha-galactosidase A; listed as Lyso-CTH)	Compound	3H thymidine incorporation (per 24 h) (SMC-41 cell line; SMC-41 cell line)	proliferation of SMC-41 (smooth muscle cell proliferation) (SMC-41 cell line)	proliferation of SMC-41 (smooth muscle cell proliferation) (SMC-41 cell line; listed as Lyso-CTH)	concentration of lyso-CTH in the plasma samples (lyso-CTH)	plasma circulation time [2]
inhibits	potent inhibitor	10 % of total	90 % of total	2 % of total	99 % of total	inhibits	potent inhibitor	CCCCCCCCCCCCC/C=C/[C@@H](O)[C@@H](N)CO[C@@H]1O[C@H](CO)[C@@H](O[C@@H]2O[C@H](CO)[C@H](O[C@H]3O[C@H](CO)[C@H](O)[C@H](O)[C@H]3O)[C@H](O)[C@H]2O)[C@H](O)[C@H]1O [lyso-CTH, lyso-ceramide trihexosamide]	increased isotope incorporation	increased proliferation	promote in vitro smooth muscle cell proliferation		
								pegylated agalsidase beta: agalsidase beta (Fabrazyme, Genzyme) pegylated via standard methods				significantly lower	increase in plasma circulation time
